What was measured:
[1] = Cytotoxicity against mouse ScN2a cells assessed as maximal tolerant concentration; assay type: cell-based; conditions: read-out: Activity
[2] = Antiprion activity against scrapie prion protein RML infected mouse ScN2a cells assessed as reduction of scrapie prion protein accumulation by immunoblot analysis; assay type: cell-based
[3] = Selectivity index, ratio of maximal tolerant concentration for mouse ScN2a cells to EC50 for scrapie prion protein RML infected mouse ScN2a cells
ScN2a = assay: Antiprion activity against scrapie prion protein RML infected mouse ScN2a cells assessed as drug level required for more than 99 percent reduction of scrapie prion protein by immunoblot analysis; assay type: cell-based
[4] = Antiprion activity against scrapie prion protein RML infected mouse Ch2 cells assessed as reduction of scrapie prion protein accumulation; assay type: cell-based
[5] = Antiprion activity against human prion Fukuoka-1 infected mouse F3 cells assessed as reduction of scrapie prion protein accumulation; assay type: cell-based; conditions: N2a #58 F3
N167 = assay: Antiprion activity against scrapie prion protein 22L infected mouse N167 cells assessed as drug level required for more than 99 percent reduction of scrapie prion protein; assay type: cell-based
[6] = Antiprion activity against scrapie prion protein 22L infected mouse N167 cells assessed as reduction of scrapie prion protein accumulation; assay type: cell-based
Ch2 = assay: Antiprion activity against scrapie prion protein RML infected mouse Ch2 cells assessed as drug level required for more than 99 percent reduction of scrapie prion protein; assay type: cell-based
N2a #58 F3 = assay: Antiprion activity against human prion Fukuoka-1 infected mouse F3 cells assessed as drug level required for more than 99 percent reduction of scrapie prion protein; assay type: cell-based

| SMILES | MNTC [1] [nM] | EC50 [2] [nM] | Selectivity Index [3] | Activity (ScN2a) [µM] | EC50 [4] [nM] | EC50 [5] [nM] | Activity (N167) [µM] | EC50 [6] [nM] | Activity (Ch2) [µM] | Activity (N2a #58 F3) [µM] |
| --- | --- | --- | --- | --- | --- | --- | --- | --- | --- | --- |
| Nc1c2ccccc2nc2ccccc12 [AMINACRINE] | 2500 | – | – | – | – | – | – | – | – | – |
| COc1ccc2nc3cc(Cl)ccc3c(Nc3ccc(N(C)C)cc3)c2c1 | 2000 | 510 | 4 | – | – | – | – | – | – | – |
| CCN(CC)c1cccc(Nc2c3ccc(Cl)cc3nc3ccc(OC)cc23)c1 | 3000 | 1010 | 3 | 2.5 | – | – | – | – | – | – |
| COc1ccc2nc3cc(Cl)ccc3c(Nc3cccc(N4CCCCC4)c3)c2c1 | 4000 | 180 | 22 | 0.5 | – | – | – | – | – | – |
| COc1ccc2nc3cc(Cl)ccc3c(Nc3cccc(N(C)C)c3)c2c1 | 2000 | 320 | 6 | – | – | – | – | – | – | – |
| COc1ccc2nc3cc(Cl)ccc3c(NCCCN(C)C)c2c1 | 1000 | 110 | 9 | 0.3 | – | – | – | – | – | – |
| COc1ccc2nc3cc(Cl)ccc3c(Nc3cccc(N4CCOCC4)c3)c2c1 | 3000 | 900 | 3 | – | – | – | – | – | – | – |
| COc1ccc2nc3cc(Cl)ccc3c(N)c2c1 | 4000 | 130 | 30 | 0.4 | – | – | – | – | – | – |
| COc1ccc2nc3cc(Cl)ccc3c(NC3CCN(Cc4ccccc4)CC3)c2c1 | 2000 | 420 | 5 | 1 | 410 | 800 | 1.5 | 490 | 1 | – |
| CCN(CC)CCCNc1c2ccc(Cl)cc2nc2ccc(OC)cc12 | 1000 | 140 | 7 | 0.3 | – | – | – | – | – | – |
| COc1ccc2nc3cc(Cl)ccc3c(Nc3cccc(N4CCN(C)CC4)c3)c2c1 | 4000 | 290 | 14 | 1 | 380 | 1490 | 3 | 1190 | 1.5 | 3.5 |
| COc1ccc2nc3cc(Cl)ccc3c(Nc3ccc(N4CCCCC4)cc3)c2c1 | 9000 | 4240 | 2 | 7 | – | – | – | 4290 | – | – |
| COc1ccc2nc3cc(Cl)ccc3c(Nc3ccccc3N(C)C)c2c1 | 5000 | 250 | 20 | 0.8 | – | – | – | – | – | – |
| COc1ccc2nc3cc(Cl)ccc3c(Nc3ccc(N4CCN(C)CC4)cc3)c2c1 | 2500 | 100 | 25 | 0.4 | 220 | 680 | 1.5 | 420 | 1.2 | 1.5 |
| CCN(CC)CCCC(C)Nc1c2ccc(Cl)cc2nc2ccc(OC)cc12 (stereo not given) [QUINACRINE] | 2500 | 230 | 11 | 0.8 | 460 | 1880 | – | 590 | 2 | – |
| CCN(CC)CCCCNc1c2ccc(Cl)cc2nc2ccc(OC)cc12 | 1000 | 150 | 7 | 0.4 | – | – | – | – | – | – |
| COc1ccc2nc3cc(Cl)ccc3c(Nc3cccc(N4CCCC4)c3)c2c1 | 2000 | 1060 | 2 | – | – | – | – | – | – | – |
| COc1ccc2nc3cc(Cl)ccc3c(N3CCN(C)CC3)c2c1 | 4000 | 360 | 11 | 1.8 | > 2000 | – | – | – | – | – |
| CCN(CC)c1ccc(Nc2c3ccccc3nc3ccccc23)cc1 | 400 | 240 | 2 | – | – | – | – | – | – | – |
| CCN(CC)c1ccc(Nc2c3ccc(Cl)cc3nc3ccc(OC)cc23)cc1 | 2000 | 480 | 4 | 1.5 | – | – | – | – | – | – |
| CCN(CC)CCNc1c2ccc(Cl)cc2nc2ccc(OC)cc12 | 4000 | 21 | 190 | 0.1 | 700 | – | – | – | 3 | – |
| COc1ccc2nc3cc(Cl)ccc3c(Nc3ccc(N4CCOCC4)cc3)c2c1 | 4000 | 1280 | 3 | 3 | – | – | – | – | – | – |
